Results on 2 compounds are retold here after PubChem BioAssay (NCI).

Holding throughout (experiment): NCI-60 cell line screen, 48 h
Assay [1] relates to SW-620 colon.
Assay [2] has as its system BT-549 breast.
Assay [3] deals with PC-3 prostate.
Assay [4] has as its system MALME-3M melanoma.
Assay [5] deals with COLO 205 colon.
Assay [6] relates to SNB-75 CNS.
Assay [7] has as its system MDA-MB-435.
In assay [8] the test system is OVCAR-5 ovarian.
Assay [9] deals with 786-0 renal.
The test system of assay [10] is ACHN renal.

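Assay format: 96-well plates, 48-hour exposure. GI50: concentration for 50% inhibition of growth. Definition used: TGI = concentration required for complete inhibition of growth.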 Some results are limits rather than exact numbers.

For `C#C[C@@]1(O)[C@@H](CO)O[C@@H](n2cc(I)c3c(N)ncnc32)[C@@H]1O`, the GI50 in assay [1] is 58.1 nM; in assay [2] it was 259 nM; in assay [3], 75.6 nM; in [4], 0.826 µM; in assay [5], 87.4 nM; in assay [6], 457 nM. For the same compound, the GI50 is 473 nM in assay [7], 933 nM in assay [8], 334 nM in [9] and 314 nM in [10]. The TGI in assay [1] was above 100 µM; in assay [2], 4.01 µM; in assay [3] it was above 38.1 µM; in assay [4], 3.39 µM; in assay [5], 706 nM; in [6], 1.99 µM. The TGI is 12.8 µM in assay [7], above 100 µM in assay [8], 3.24 µM in assay [9] and above 100 µM in [10].
For the compound `COc1cc(OC)cc(C2C3=C(COC3=O)Nc3cc(OC)ccc32)c1` (stereo not given), the GI50 in assay [1] was below 10 nM; in assay [2], 13.8 nM; in [3], below 10 nM; in assay [4], 13.5 µM; in assay [5], below 10 nM; in assay [6] it was below 10 nM. Moreover, the GI50 is below 10 nM in [7], below 20.1 nM in assay [8], 20.3 nM in assay [9] and below 10 nM in assay [10]. The TGI in [1] is above 70.8 µM; in assay [2] it was above 100 µM; in [3], above 42.3 µM; in [4], above 100 µM; in assay [5], below 10 nM; in [6] it was 24.1 µM. For the same compound, the TGI in [7] is below 0.01 µM; in assay [8], above 100 µM; in assay [9] it was 30.9 µM; in [10], 33.9 µM.
